The text below walks through data of patent publication US20110294855A1, “Active Compound Combinations” (BAYER CROPSCIENCE AG, priority 2009, published 2011).

The experiment deals with Microdochium nivale. Nature of the experiment: Microdochium nivale test (lawn)/protective. The class given is in vivo. The following applies: lawn (100% Agrostis stolonifera), preventive application at 2000, 1000, 500 and 100 g/ha, inoculation 24 hours later, scoring after 5, 7, 14 and 21 days. The protocol:
Microdochium Nivale Test (Lawn)/Protective
Lawn seed (100% Agrostis stolonifera) was sown in dishes of the dimensions 38 cm×15 cm×9 cm. 7 days after sowing, the lawn was cut prior to preventive guanidinium hydroxide application at application rates of 2000, 1000, 500 and 100 g/ha. The water application rates were 1000 l/ha (converted). 24 hours after the preventive application of the active compound, the lawn was inoculated by placing of wheat grains infected with Microdochium nivale. In each case 3 wheat grains were placed into a single dish. Scoring of the subsequent fungal growth in the lawn dishes was carried out after 5, 7, 14 and 21 days. In the dishes which had been treated with guanidinium hydroxide, an inhibition of the growth of Microdochium nivale of up to 30% (Abbott) was observed.

On to `N=C(N)N.O` [guanidinium hydroxide], for which the “inhibition of the growth of Microdochium nivale (Abbott)” value is recorded as “up to 30%”.
